{"source": "patent US6812034B2", "about": "“Fetuin-MGP-mineral complex in serum assayed to determine calcification risk” (The Regents of the University of California, priority 2000, dated 2004)", "key": {"[1]": {"tested_on": "warfarin-induced artery calcification", "assay": "artery calcification in rats treated with warfarin for 2 or 4 weeks", "format": "in vivo, rat", "details": "6.25 mg P/kg/day plus warfarin, both carotid arteries", "protocol": "(§1) Tissues were subsequently washed extensively with buffer and extracted with 1 ml of 10% formic acid for 24 h at room temperature, as described. Calcium levels in serum were determined colorimetrically using cresolphthalein complexone (Sigma) and phosphate levels in serum and in acid tissue extracts were determined calorimetrically as described (Zhu et al. (1994) Cardiology, 85: 370-377). Tissue sectioning and staining were carried out by Biomedical Testing Services, Inc., (San Diego, Calif.). The effect of bisphosphonates on artery calcification was also examined in rats treated with warfarin alone using procedures which have been described elsewhere (Price et al. (1998) Arterioscler. Thromb. Vasc. Biol. 18: 1400-1407)."}, "[2]": {"tested_on": "vitamin D-induced artery calcification", "assay": "mineral phosphate accumulation in acid demineralization extracts of thoracic aorta and carotid arteries, vitamin D plus warfarin", "format": "in vivo, rat", "protocol": "as §1, with “first” for “also”, “in which artery calcification was induced by treatment” for “treated”, “plus high doses of vitamin D. […] All animals were killed by exsanguination at 96 h. […] All animals were killed by exsanguination at 96 h after the first vitamin D dose. […] All animals were killed by exsanguination 96 h after the first vitamin D injection.” for “alone using procedures which have been described elsewhere (Price et al. (1998) Arterioscler. Thromb. Vasc. Biol. 18: 1400-1407).”"}, "[3]": {"tested_on": "normal bone mineralization", "details": "parenteral; cited from earlier work"}, "[4]": {"assay": "serum levels of calcium, phosphate, MGP and BGP after subcutaneous bisphosphonate", "format": "in vivo, rat", "details": "for Ionic calcium / total calcium: 8 mg/100 g", "protocol": "Rats were fed rodent diet 5001 (Purina Mills Inc., St. […] Etidronate was dissolved with 0.15 M NaCl, titrated to pH 7.4 with dilute NaOH, and administered subcutaneously to forty-day-old male rats. Control animals received injections of 0.15 M NaCl only. […] At the times indicated in FIG. 1, each rat was anesthetized with metofane and a 400 μl sample of blood was withdrawn from the jugular vein. Blood samples were allowed to clot for 15 min at room temperature and serum was obtained after centrifugation in a clinical centrifuge and then frozen rapidly on dry ice and stored at -70° C. until later analysis. The same procedure was followed for the second time course experiment (FIG. 10), with the difference that the etidronate dose was increased to 32 mg per 100 g body weight. […] Two hours later, all rats were injected with etidronate at a dose of 8 mg/100 g (t=0), and 400 μl of blood were removed from each animal at the indicated times for biochemical analyses. […] In neither control group could we detect a significant change in serum levels of calcium, phosphate, or MGP at any time point. […] Rice et al. (1994) J. Bone Min. Res. 9: 567-576). Calcium levels in serum and other samples were determined colorimetrically using cresolphthalein complexone (Sigma) and phosphate levels in serum, effluent fractions, and other samples were determined calorimetrically as described (Chen et al. (1956) Anal. Chem. 28(11): 1756-1758). For determination of ionic calcium, freshly obtained blood samples were immediately placed into a 2.5 ml gold top vacutainer tube to avoid out gassing of CO2 and the associated shift in pH. […] Electrophoresis was carried out using 4 to 20% polyacrylamide gels (Novex, Inc., San Diego, Calif.) run in Tris-glycine buffer containing SDS. Protein sequencing was carried out on bands transferred to PVDF membranes using a Procise 494 Sequencer (ABI division, PE Biosystems, Foster City, Calif.)."}, "[5]": {"assay": "serum levels of calcium and phosphate in rats treated with vitamin D plus warfarin", "format": "in vivo, rat", "protocol": "For measurement of mineral accumulation in arteries, each tissue was removed within 30 minutes of death and immediately frozen. Tissues were subsequently washed extensively with buffer and extracted with 1 ml of 10% formic acid for 24 h at room temperature, as described. Calcium levels in serum were determined colorimetrically using cresolphthalein complexone (Sigma) and phosphate levels in serum and in acid tissue extracts were determined calorimetrically as described (Zhu et al. (1994) Cardiology, 85: 370-377). Tissue sectioning and staining were carried out by Biomedical Testing Services, Inc., (San Diego, Calif.). […]"}, "[6]": {"tested_on": "growth plate cartilage mineralization", "assay": "microradiograph of the proximal tibia", "format": "in vivo, rat", "details": "4 mg to 100 g rats at t=0 and 24 h, killed at 48 h", "protocol": "These rats were exsanguinated at t=48 h. Serum was obtained at each time point and stored at -20° C. until later analysis. Tibias from the rats killed at 48 h, as well as from age-matched controls, were removed, cleaned of adhering tissue, and fixed in 70% ethanol. Tibia samples were embedded in plastic and cut into sections of 500 microns by Pathology Associates International (Frederickberg, Md.). The resulting sections were microradiographed using a Hewlett-Packard Model […] Faxitron Xray machine. All animal experiments were approved by the UCSD animal subjects committee."}, "[7]": {"assay": "weight, tibia length and serum calcium and phosphate in warfarin-treated rats", "format": "in vivo, rat", "excerpt": "This procedure induces artery calcification within 2 weeks without the presence of hypercalcemia."}, "[8]": {"details": "6.25 mg P/kg/day, 84 h after first vitamin D"}, "[9]": {"details": "6.25 mg P/kg/day plus warfarin, 4 weeks"}}}
{"molecule": "CC(O)(P(=O)(O)O)P(=O)(O)O", "note": "[Etidronate, (1-hydroxyethylylidene)-bisphosphonate]", "values": [{"measurement": "nmol PO4 Carotid", "setting": "[1]", "result": "55.2 ± 14.5", "unit": "nmol"}, {"measurement": "dose required to reduce the extent of mineralization by half in the thoracic aorta", "setting": "[2]; 84 h, FIG. 3", "result": 2, "unit": "mg P/kg/day"}, {"measurement": "dose required to reduce the extent of mineralization by half in the carotid artery", "setting": "[2]; 84 h, FIG. 4", "result": 2, "unit": "mg P/kg/day"}, {"measurement": "Artery Calcification Dose for 50% inhibition", "setting": "[2]; daily subcutaneous dose, vitamin D-induced artery calcification, male rats initially 200 g", "result": 2, "unit": "mg P/kg/day"}, {"measurement": "Artery Calcification Relative potency", "setting": "[2]; relative to etidronate = 1", "result": 1}, {"measurement": "dose required to inhibit normal bone mineralization in vivo", "setting": "[3]", "result": "about 5 mg P/kg/day"}, {"measurement": "increase in serum calcium, phosphate and MGP compared with the 8 mg/100 g dose", "setting": "[4]; 4 mg/100 g body weight, 6 h, data not shown", "result": "smaller increase"}, {"measurement": "elevation of serum calcium", "setting": "[4]; 8 mg/100 g body weight sc", "result": 1.8, "unit": "fold"}, {"measurement": "elevation of serum phosphate", "setting": "[4]; 8 mg/100 g body weight sc", "result": 1.6, "unit": "fold"}, {"measurement": "serum MGP", "setting": "[4]; 8 mg/100 g body weight sc", "result": 12, "unit": "µg/mL"}, {"measurement": "serum calcium", "setting": "[4]; 8 mg/100 g body weight sc", "result": 4.3, "unit": "mM"}, {"measurement": "serum phosphate", "setting": "[4]; 8 mg/100 g body weight sc", "result": 5.6, "unit": "mM"}, {"measurement": "time at which serum mineral complex reaches maximal levels", "setting": "[4]; 8 mg/100 g sc", "result": 6, "unit": "h"}, {"measurement": "time by which serum mineral complex is cleared from serum", "setting": "[4]; 8 mg/100 g sc", "result": "≤ 24", "unit": "h"}, {"measurement": "time of peak level of MGP", "setting": "[4]; 8 mg/100 g sc", "result": 6, "unit": "h"}, {"measurement": "time of peak serum BGP level", "setting": "[4]; 8 mg/100 g sc", "result": 1, "unit": "h"}, {"measurement": "time to half of maximal serum MGP levels", "setting": "[4]; 8 mg/100 g sc", "result": 3, "unit": "h"}, {"measurement": "time to half of maximal serum calcium and phosphate levels", "setting": "[4]; 8 mg/100 g sc", "result": 1, "unit": "h"}, {"measurement": "phosphate above control levels", "setting": "[4]; 8 mg/100 g sc, by 6 h", "result": 59, "unit": "%"}, {"measurement": "total calcium above control levels", "setting": "[4]; 8 mg/100 g sc, by 6 h", "result": 76, "unit": "%"}, {"measurement": "maximum elevation of serum BGP", "setting": "[4]; 8 mg/100 g sc, data not shown", "result": 3, "unit": "fold"}, {"measurement": "Ionic calcium", "setting": "[4]; 1 h", "result": "1.47 ± 0.04", "unit": "mM"}, {"measurement": "total calcium", "setting": "[4]; 1 h", "result": "3.45 ± 0.34", "unit": "mM"}, {"measurement": "Ionic calcium", "setting": "[4]; 2 h", "result": "1.51 ± 0.04", "unit": "mM"}, {"measurement": "total calcium", "setting": "[4]; 2 h", "result": "4.05 ± 0.44", "unit": "mM"}, {"measurement": "Ionic calcium", "setting": "[4]; 6 h", "result": "1.46 ± 0.03", "unit": "mM"}, {"measurement": "total calcium", "setting": "[4]; 6 h", "result": "4.41 ± 0.43", "unit": "mM"}, {"measurement": "time of maximal level in serum total calcium, phosphate and MGP", "setting": "[4]; 32 mg/100 g sc", "result": "6 to 9", "unit": "h"}, {"measurement": "level of serum ionized calcium", "setting": "[4]; 32 mg/100 g sc, 6 h", "result": "no increase"}, {"measurement": "serum levels of total calcium, phosphate and MGP", "setting": "[4]; 32 mg/100 g sc, 24 h", "result": "remained substantially elevated"}, {"measurement": "increase in serum MGP levels", "setting": "[4]; 32 mg/100 g, within 6 h", "result": 36, "unit": "fold"}, {"measurement": "increase in serum phosphate levels", "setting": "[4]; 32 mg/100 g, within 6 h", "result": 2.5, "unit": "fold"}, {"measurement": "serum MGP", "setting": "[4]; 32 mg/100 g, within 6 h", "result": 18, "unit": "µg/mL"}, {"measurement": "serum phosphate", "setting": "[4]; 32 mg/100 g, within 6 h", "result": 8.6, "unit": "mM"}, {"measurement": "total serum calcium", "setting": "[4]; 32 mg/100 g, within 6 h", "result": 8.8, "unit": "mM"}, {"measurement": "Serum Ca", "setting": "[5]; 0.25 mg P/kg/day, 84 h", "result": "13.7 ± 1.2", "unit": "mg/dL"}, {"measurement": "Serum P", "setting": "[5]; 0.25 mg P/kg/day, 84 h", "result": "10.8 ± 0.5", "unit": "mg/dL"}, {"measurement": "Serum Ca", "setting": "[5]; 1.25 mg P/kg/day, 84 h", "result": "13.5 ± 0.7", "unit": "mg/dL"}, {"measurement": "Serum P", "setting": "[5]; 1.25 mg P/kg/day, 84 h", "result": "9.5 ± 0.3", "unit": "mg/dL"}, {"measurement": "Serum Ca", "setting": "[5]; [8]", "result": "15.0 ± 0.5", "unit": "mg/dL"}, {"measurement": "Serum P", "setting": "[5]; [8]", "result": "8.2 ± 0.4", "unit": "mg/dL"}, {"measurement": "microradiograph of the proximal tibial metaphysis", "setting": "[6]", "result": "alternating bands of calcification and no calcification"}, {"measurement": "final length of the tibia", "setting": "[7]; 6.25 mg P/kg/day plus warfarin 4 weeks, warfarin alone 3.80±0.04, p<0.001", "result": "3.59±0.03", "unit": "cm"}, {"measurement": "Ending wt", "setting": "[7]; [9]", "result": "238 ± 11", "unit": "gm"}, {"measurement": "effect on weight gain", "setting": "[7]; [9]", "result": "inhibits weight gain"}, {"measurement": "mg Ca dl serum", "setting": "[7]; [9]", "result": "10.9 ± 0.8", "unit": "mg/dL"}, {"measurement": "mg P dl serum", "setting": "[7]; [9]", "result": "8.1 ± 0.6", "unit": "mg/dL"}]}
